What was measured:
[1] = tested on: Bl6F10 metastatic melanoma cells; experiment: In vivo experimental metastasis (lung colonization) model; design: species or system C57BL6 mice
Procedure: C57BL6 mice were injected i.v. (tail vein) with a bolus of 5×10^4-10^5 Bl6F10 metastatic melanoma cells. Immediately after the tail vein injection, mice were randomly divided into groups of 15 and mice in each group were placed in plexiglass chambers (approximately 3 L) which were continuously flushed with gas mixtures of 20% O2:balance N2 and 10% O2:balance N2, respectively. […] After a 24 hour exposure to an atmosphere of either 20% O2 or 10% O2, mice were removed from the chambers and placed in regular cages kept at room air. Thirteen days later, mice were sacrificed by cervical dislocation, and lungs were removed and fixed in Bouin's fixative (Sigma). Metastatic nodules (many of which appeared black due to the presence of melanin) on the surface of the lungs were counted visually under a dissecting microscope. Data were expressed as the number of lung nodules per 10^4 cells injected and were analyzed using statistical tests for non-parametric values.
Cells were then removed from plates with trypsin and 5×10^4 cells were injected i.v. (tail vein) into C57BL6 female mice. Some of the cells treated in vitro were plated onto tissue culture dishes to determine colony-forming ability using the protocol described below in the Section I.J.
Following harvesting from culture plates, 5×10^4 cells were injected intravenously (tail vein injections) into 5-7 week old C57Bl/6 female mice. Cells were also plated in tissue culture plates to determine the effect of culture conditions on in vitro colony forming ability. Fourteen days after intravenous inoculation, mice were sacrificed and their lungs were removed and fixed in Bouin's fixative. Both melanotic and amelanotic metastatic colonies were counted under a dissecting microscope. Data were expressed as the number of lung nodules per 5×10^4 viable cells injected (as determined by in vitro colony-forming ability) and were analyzed using statistical tests for non-parametric values.

[2] = tested on: uPAR mRNA; experiment: Northern blot analysis of uPAR mRNA in MDA-MB-231 breast carcinoma cells; type: cell-based, human
[3] = tested on: metalloproteinase (gelatinase); experiment: Zymography of metalloproteinase (gelatinase) secretion by breast cancer cells; type: cell-based, human; details: 10^−11 M GTN, 10^−12 M SNP
Procedure: The cells were cultured using a serum-free medium (EX-CELL 300). Following incubation, the medium was extracted and centrifuged at 5,000 RPM for 5 minutes. The supernatant was subsequently collected and stored at −80° C. until further use. SDS-polyacrylamide gels were prepared in accordance with well-known procedures. For the analysis of metalloproteinase secretion, the gel contained 0.1% w/v gelatin, and for the analysis of plasminogen activator secretion, the gel was supplemented with 0.1% w/v casein as well as plasminogen (50 μg/mL). The serum-free conditioned medium was then combined with a nonreducing sample loading buffer (0.5 M Tris, 10% SDS, 1% Bromophenol Blue in 2 mL glycerol) in a ratio of 4:1 and was not boiled. Following electrophoresis, the gels underwent two 15 minute washes with 2.5% Triton X-100. This step removed the SDS. After the washes with H2O, the gels were incubated overnight at 37° C. in a solution containing Tris-HCl (pH 7.0) and CaCl2 (5 mM). The gels were stained with 0.4% Coomassie Brilliant Blue R-250 in 40% methanol/10% glacial acetic acid/50% distilled water for approximately 1 hour, and then destained for about 2 hours in 30% methanol/10% glacial acetic acid/60% distilled water. […]

[4] = tested on: MDA-MB-231 breast carcinoma spheroids; experiment: Clonogenic survival of MDA-MB-231 spheroids after doxorubicin; type: cell-based, human
Procedure: Following initial cell plating, spheroids formed for 24, 48, 72, 96 or 120 h. At each time point, spheroids were exposed to 200 μM of doxorubicin, then disaggregated and plated for assessment of colony formation (survival).
Spheroids were allowed to form for 72 h. DETA/NO was applied for the final 24 h of spheroid formation. Spheroids were then exposed to doxorubicin for 1 h, prior to disaggregation and plating for assessment of survival by clonogenic assay.
Using human MDA-MB-231 breast carcinoma cells in clonogenic assays, survival was determined following doxorubicin exposure and NO mimetic administration to both monolayer and spheroid cultures.

[5] = tested on: HTR-8/SVneo invasive trophoblast cells; experiment: In vitro Matrigel invasion assay, HTR-8/SVneo; type: cell-based; details: Homo sapiens, read-out: inhibition of invasiveness of hypoxic cells
Procedure: The chambers consist of cell culture inserts, 6.5 mm in diameter and with a 8 μm pore size membrane. Each membrane was coated with 100 μL of a 1 mg/mL solution of Matrigel diluted in cold serum-free culture medium (EX-CELL 300), and allowed to dry in a laminar flow cabinet for approximately 12 hours. The Matrigel was then rehydrated by incubating it with 100 μL of serum-free medium for approximately 1 hour. After rehydration, cell suspensions containing 5.0×10^4 or 1.0×10^5 cells in 100 μL of medium, containing both serum and the nitric oxide treatments, were added to each well. Culture medium containing serum and the respective nitric oxide treatment were then added to each insert. The cells were incubated for 24 hours under either hypoxic (1% O2) or control (20% O2) conditions. Following incubation, the non-invading cells were removed from the upper surface of the membrane by wiping with a cotton swab. The cells on the lower surface of the membrane were fixed for 10 minutes with Carnoy's fixative (25% acetic acid, 75% methanol), and then stained for approximately 3 hours with a 1% toluidine blue, 1% sodium borate solution. […] Invading cells were then viewed under the microscope at 40× magnification and counted. The invasion index for each treatment was calculated by dividing the number of invading cells by the number of cells which invaded under standard conditions. […]

[6] = tested on: HIF-1; experiment: HIF-1 accumulation and transactivating activity; type: cell-based; details: high concentrations (0.1-1 mM); preliminary studies
Text: The promotor region of uPAR contains binding sites for transcription factors such as activator protein-1 (AP-1), Sp-1/3 and nuclear factor κB (NFκB).

In the case of `O=[N+]([O-])OCC(CO[N+](=O)[O-])O[N+](=O)[O-]` [GTN, glyceryl trinitrate], the “decrease of hypoxia-stimulated lung nodule formation” value ([1]; cells pre-treated in vitro 12 h, 1% O2, 2×10^−11 M GTN) is reported as 85%, the “reduction of extent of metastasis” value ([1]; cells pre-treated in vitro 12 h, 20% oxygen, 2×10^−11 M GTN) is reported as “more than 60%” and the “attenuation of L-NMMA metastatic response” value ([1]; concomitant GTN (10^−10 M) and L-NMMA) is reported as 60%. The “effect of DFO on uPAR mRNA expression” value ([2]; 1 μM of GTN) was “not prevented”, the “uPAR mRNA levels vs untreated hypoxic cells” value ([2]; 1% O2, SNP 10^−12 M, GTN 10^−11 M and 10^−10 M) was “significantly reduced” and the “hypoxic upregulation of uPAR mRNA expression” value ([2]; GTN 1 μM) was “prevented”. The “effect of hypoxia on uPAR mRNA when ODQ also present” value ([2]; GTN 1 μM with ODQ 0.5 μM) was “unable to block”, the “inhibition of DFO (100 μM)-induced upregulation of uPAR” value ([2]; GTN (10^−10 M, 10^−6 M)) was “could not be inhibited” and the “hypoxia-mediated increase in uPAR mRNA levels” value ([2]; GTN (a pM) as printed) was “inhibited”. For the same compound, the “uPAR transcript levels vs 20% O2 alone” value ([2]; combination of L-NMMA (0.5 mM) and GTN (0.1 nM), 20% O2) was “no significant increase”, the “gelatinases secreted vs untreated hypoxic cells” value [3] was “decrease in gelatinases secreted” and the “survival of control (doxorubicin-untreated) cells” value ([4]; DETA 0.1 mM and 2 μM, GTN 0.1 nM and 1 μM) was “did not affect the survival”. The “attenuation of resistance to 200 μM doxorubicin associated with 3D culture” value ([4]; spheroids) was 30%, the inhibition at 0.1 µM [5] was 56.2% and the “HIF-1 accumulation and transactivating activity” value [6] was “inhibit HIF-1 accumulation and transactivating activity”.

Reference: patent publication US8168232B2, “Formulations and methods of using nitric oxide mimetics in cancer treatment” (priority 2000, dated 2012)
